Measured values reported in US10888569B1, “Methods and compositions for treating cancer” (THE UNIVERSITY OF CHICAGO, priority 2017, dated 2021).

Legend:
[1] = biological target: T1, BACH1 (Homo sapiens, UniProt O14867); experiment: Immunoblotting of PDX tumor lysates: BACH1; assay type: in vivo, mouse; set-up: BACH1 protein blots using tumor lysates from representative mice of different TNBC models; from tissue; host or cells: TNBC patient-derived xenograft tumour in mammary fat pad of SCID-Beige mice; conditions: following hemin treatment
T1 sequence (O14867 1-736): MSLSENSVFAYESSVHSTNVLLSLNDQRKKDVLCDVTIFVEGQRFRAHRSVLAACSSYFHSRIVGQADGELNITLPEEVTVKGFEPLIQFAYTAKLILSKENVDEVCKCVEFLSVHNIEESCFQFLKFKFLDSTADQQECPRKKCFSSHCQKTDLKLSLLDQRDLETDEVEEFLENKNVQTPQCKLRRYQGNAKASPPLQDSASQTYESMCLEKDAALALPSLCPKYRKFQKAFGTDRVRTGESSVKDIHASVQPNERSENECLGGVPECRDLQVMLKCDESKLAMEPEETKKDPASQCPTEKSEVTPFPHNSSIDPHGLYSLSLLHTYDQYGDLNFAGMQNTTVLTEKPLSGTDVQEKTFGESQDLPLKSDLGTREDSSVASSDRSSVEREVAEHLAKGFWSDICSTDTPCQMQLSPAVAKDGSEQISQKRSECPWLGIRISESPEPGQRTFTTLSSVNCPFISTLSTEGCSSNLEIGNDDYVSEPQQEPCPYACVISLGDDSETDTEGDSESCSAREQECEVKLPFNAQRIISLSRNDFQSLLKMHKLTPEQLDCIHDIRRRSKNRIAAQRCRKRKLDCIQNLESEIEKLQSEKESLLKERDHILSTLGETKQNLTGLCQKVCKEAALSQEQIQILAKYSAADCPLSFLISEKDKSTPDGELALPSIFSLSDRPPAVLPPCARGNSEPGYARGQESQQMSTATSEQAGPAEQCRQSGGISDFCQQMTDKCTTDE
Protocol: (§1) Whole cell lysates were prepared using RIPA buffer (Sigma) with protease inhibitor cocktails (1:100 ThermoFisher) and phosphatase inhibitors (SimpleStop1, Gold Biotechnology) at 4° C. and quantified using Bradford assays for western blotting using antibodies against BACH1 (sc-271211; Santa Cruz), and alpha-TUBULIN (sc-28199; Santa Cruz). Blots were imaged and processed using a Licor Odyssey Fc, dual-mode imaging system (Licor).
For a patient-derived xenografts (PDX) model, frozen PDX tumors in 0.5 ml of sterile HBSS were prepared in a volume of 10-20 mm^3. In brief, tumor fragments were implanted into the mammary fat pads of 5 weeks old SCID-Beige mice following standard procedures. […] Tumor volume was measured by caliper weekly. Tumor weight was measured at the end of drug treatment. Tumor size was shown as mean+/_s.e.m. with significance (p-value) by paired Student's t-test. All the animals were also monitored regularly for body weights.

[2] = test system: TNBC cells (BM1, MB436, MB468, BT549); assay type: cell-based, human
Protocol: TNBC cell lines stably knocked down with lenti-viral shRNA for BACH1 were constructed and maintained as described previously. Gene expression analysis of cultured cells and isolated tumor tissues used a Reverse transcriptase kit followed by Roche96 cycler for real time mRNA quantification and Lycor imaging for immunoblotting. For in vitro cell viability assay with mitochondrial inhibitors, TNBC cells (2×10^3-5×10^3/well) seeded on 96 well plates overnight with culture media (DMEM with 25 mM Glucose) were treated with inhibitors in fresh culture media (DMEM with 1.25 mM Glucose) for 48 and 72 hours and stained with calcein AM and/or monitored for cellular confluency using an IncuCyte Zoom Live Cell Analysis system. Extracellular flux analyzer was used to assay metabolic phenotypes of BACH1-depleted TNBC cells and TNBC cells that are treated with hemin overnight before assays. For bioinformatics analysis using primary patient data cohort (TCGA), cBioportal and R were used.
Breast cancer cells (5,000 cells/well) and non-malignant mammary epithelial cells (8,000 cells/well) were plated on 96-well plates to observe growth of cells every 4 hours by phase contrast imaging using an IncuCyte Zoom Live Cell Analysis system (Essen Bioscience). After 24 hours of plating, inhibitors were added and monitored until control cells reached 100% confluent. To determine cell viability, cells were seeded in black walled 96-well plates overnight and treated with inhibitors for 48 hours. Calcein AM (R&D system) in PBS was then added and incubated for 1 hour at 37° C. Fluorescence was determined using a Victor3 plate reader (PerkinElmer) with excitation at 420 nm and emission at 520 nm. The absorbance was used to reflect live cell numbers and was normalized to those in control with vehicles and shown as relative viability (%).

[3] = test system: HMOX1; experiment: Real-time quantitative PCR of HMOX1; assay type: cell-based, human; conditions: hemin 20 μM, 48 hours; BM1 and MB436 cells
Protocol: Total RNA from cells and tumor samples was isolated using Trizol (Invitrogen) according to the manufacturer's instructions. Two μg of RNA was adapted for reverse transcriptase PCR (Applied Biosystem) to generate cDNA. Real-time PCR was carried out using LightCycler 96 (Roche) and a Fast Start Essential DNA master mix (2×) reagent. Cq values normalized relative to the expression of endogenous control genes using 2^(−ΔΔCq) were plotted.

[4] = test system: MB436 xenograft tumors; conditions: hemin 50 mg/kg/day i.p. 10 consecutive days prior to metformin 200 mg/kg
Protocol: Two million human breast cancer cells (MDA-MB-436-shCont, MDA-MB-436-shBACH1, BM1-shBACH1, or BM1-shCont) in 100 μl PBS were injected into the mammary fat pads of 5 to 6 weeks old athymic nude female mice (Charles River Laboratories). When tumors were about 20-30 or 50 mm^3 in volume, hemin (50 mg/kg/day) or vehicle (20 mM NaOH in phosphate buffered saline) was injected intraperitoneally for 10 days prior to metformin treatment for 8 weeks. Metformin (200 mg/kg for MDA-MB-436 cells or 300 mg/kg for BM1-cells) was provided in drinking water ad libidum. Tumor growth was monitored weekly by caliper measurement in two dimensions to generate ellipsoid volumes using an equation of vol.=0.4×(L×W^2).

[5] = biological target: T1, BACH1; experiment: Immunoblotting of BACH1 in cell lysates after hemin; assay type: cell-based; set-up: Protein blots of BACH1 levels in BM1 and MB436 cells treated with Hemin for 4 or 24 hours; endogenous in cells; host or cells: BM1 (MDA-MB-231 derivative), MDA-MB-436, BT549
Protocol: as §1

In the case of `C=CC1=C(C)c2cc3[n-]c(cc4[n-]c(cc5nc(cc1n2)C(C)=C5C=C)c(C)c4CCC(=O)O)c(CCC(=O)O)c3C.[Cl-].[Fe+3]` [hemin, Chloro[3,7,12,17-tetramethyl-8,13-divinylporphyrin-2,18-dipropanoato(2-)]iron(III)], the “BACH1 protein expression in PDX tumors” value [1] is reported as “depleted”, the “cytotoxicity / growth inhibition of cultured TNBC cells” value ([2]; 20 μM hemin) is reported as “neither cytotoxic nor growth inhibitory” and the “metformin sensitivity of MB468 cells expressing wild type BACH1 when treated with hemin” value ([2]; MB468 transfected with pCDH-BACH1) is reported as “metformin sensitivity was restored”. For the same molecule, the “cytotoxicity / growth inhibition of TNBC cells” value ([2]; hemin 10-80 μM up to 124 hours) was “neither cytotoxic nor growth inhibitory”, the HMOX1 expression [3] was “increased” and the “breast tumor growth / volume” value [4] was “neither hemin nor metformin alone significantly altered tumor growth”. For the same molecule, the BACH1 levels ([5]; 20 μM hemin, cultured TNBC cells) was “effective at reducing BACH1 levels” and the BACH1 levels ([5]; hemin 10-80 μM, TNBC cells) was “effective at reducing BACH1 levels”.
